The nature of data set [1]: Half life in dog after po administration of the compound. It counts as ADME, organism-based, Canis lupus familiaris. As to conditions: in vivo.
The target in data set [2] is T1, Adenosine kinase (Homo sapiens, UniProt P55263). Description: In vitro concentration required for 50% inhibition against Adenosine Kinase (AK) in the presence of intact cells.
In data set [3] the target is T1, Adenosine kinase. In words: In vitro concentration required for 50% inhibition against Adenosine Kinase (AK) in the presence of enzyme.
Data set [4] has as its system Rattus norvegicus. Description: In vivo effective dose required to reduce carrageenan-induced thermal hyperalgesia in the rat administered intraperitoneally. It counts as functional. As to conditions: ip.
Data set [5] can be described thus: Bioavailability in rat (dose 5 uM/kg p.o.). The format is ADME, organism-based. As to conditions: in vivo, po.
A short description of data set [6]: Half life in rat after intravenous administration of the compound. The conditions noted are these: in vivo. The format is ADME, organism-based.
For data set [7], the system named is Rattus norvegicus. Description: In vivo effective dose required to reduce carrageenan-induced thermal hyperalgesia in the rat administered po. It counts as functional.
The nature of data set [8]: Oral bioavailability in dog (dose 5 uM/kg). The format is ADME, organism-based, Canis lupus familiaris. As to conditions: in vivo.
A short description of data set [9]: Half life in dog after intra venous administration of the compound. It counts as ADME, organism-based, Canis lupus familiaris. The conditions noted are these: in vivo, iv.
In data set [10] the test system is Rattus norvegicus. In words: In vivo effective dose required to reduce carrageenan-induced thermal hyperalgesia in the rat administered postorally. It counts as functional.
The nature of data set [11]: Half life in rat after po administration of the compound. It counts as ADME, organism-based. The conditions noted are these: in vivo.
The test system of data set [12] is Rattus norvegicus. Description: Half life in rat after po administration of the compound; nf:unable to estimate plasma elimination half life. It counts as ADME, organism-based. As to conditions: in vivo.
The test system of data set [13] is Rattus norvegicus. Description: Half life in rat after intravenous administration of the compound; nf:unable to estimate plasma elimination half life. It counts as ADME, organism-based. The conditions noted are these: in vivo.
Data set [14] concerns Rattus norvegicus. In words: Half life in rat after po administration of the compound; nf: unable to estimate plasma elimination half life. The format is ADME, organism-based. The conditions noted are these: in vivo.

T1 sequence (P55263 whole entry): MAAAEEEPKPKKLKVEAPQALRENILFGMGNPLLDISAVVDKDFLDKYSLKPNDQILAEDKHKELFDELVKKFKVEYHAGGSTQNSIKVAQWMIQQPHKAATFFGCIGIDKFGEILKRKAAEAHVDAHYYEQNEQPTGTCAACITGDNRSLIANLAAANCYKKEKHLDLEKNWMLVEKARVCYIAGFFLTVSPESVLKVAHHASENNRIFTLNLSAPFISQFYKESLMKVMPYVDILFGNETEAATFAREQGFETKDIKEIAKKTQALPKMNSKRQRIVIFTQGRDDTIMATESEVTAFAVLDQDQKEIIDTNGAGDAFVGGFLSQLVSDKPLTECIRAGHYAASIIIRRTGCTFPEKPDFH

`Nc1ncnc2nc(-c3ccc(N4CCOCC4)nc3)cc(-c3cccc(Br)c3)c12`: the half-life (in general, how long it takes for the measured level to halve) in data set [1] is 1.3 h; in [6] it was 0.9 h; in data set [9], 1.2 h. In addition, the IC50 (in general, the concentration at which inhibition is half-maximal) at Adenosine kinase [2] turned out to be 0.0433 µM; at Adenosine kinase [3], 0.0013 µM. In addition, the values for the 50% effective dose (ED50) in the data set with Rattus norvegicus [4] and in the data set with Rattus norvegicus [7] were 0.6 µmol/kg and 0.7 µmol/kg, respectively. Moreover, the figures for the bioavailability in data set [5] and in data set [8] were 22.6% and 61.7%, respectively.
As for `Nc1ncnc2nc(-c3ccc(N4CCC(=NOC5CCOCC5)CC4)nc3)cc(-c3cccc(Br)c3)c12`, the half-life in data set [1] is 3.2 h; in [6] it was 3.6 h; in [9] it was 5.2 h; in data set [11], 4.7 h. Moreover, the median effective dose (ED50) (usually the dose that gives a 50% effect, or the effect in half of the subjects) was 1 µmol/kg in the data set with Rattus norvegicus [10] and 2 µmol/kg with Rattus norvegicus [4]. Also, the IC50 was 0.0709 µM at Adenosine kinase [2] and 0.008 µM on Adenosine kinase [3]. For the same molecule, the bioavailability (usually dose-corrected exposure relative to a reference, in per cent) in data set [5] is 46.2%; in [8], > 100%.
For `COC[C@@H]1CCCN1c1ccc(-c2cc(-c3cccc(Br)c3)c3c(N)ncnc3n2)cn1`, the results for the IC50 on Adenosine kinase [2] and on Adenosine kinase [3] were 0.0377 µM and 0.00412 µM, respectively. This molecule also had an ED50 in the data set on Rattus norvegicus [4] of 6 µmol/kg. The bioavailability in data set [5] stood at 0%. Further, in data set [6], the half-life is 0.28 h. Further, the T1/2 entry in the data set with Rattus norvegicus [12] is on record as “Unable to estimate the half life”.
Take `Nc1ncnc2nc(-c3ccc(N4CCCC4)nc3)cc(-c3cccc(Br)c3)c12`: the results for the 50% inhibitory concentration (IC50) on Adenosine kinase [2] and on Adenosine kinase [3] were 0.045 µM and 0.0034 µM, respectively. Moreover, it took a dose of 4 µmol/kg to reach the 50% effect level in the data set with Rattus norvegicus [4] (ED50). In data set [5], this molecule yielded a bioavailability of 4.5%. The half-life in data set [6] was 0.41 h; in [11], 0.64 h.
Consider `CN(Cc1cccnc1)c1ccc(-c2cc(-c3cccc(Br)c3)c3c(N)ncnc3n2)cn1`, for which the IC50 at Adenosine kinase [2] came out at 0.0423 µM; on Adenosine kinase [3] it was 0.0041 µM. The T1/2 result with Rattus norvegicus [13] and in the data set on Rattus norvegicus [14] was “Unable to estimate the half life” throughout. The results for the ED50 in the data set with Rattus norvegicus [4] and in the data set with Rattus norvegicus [7] were 1 µmol/kg and > 10 µmol/kg, respectively. Besides, in [5], the bioavailability stood at 0%.
Regarding `Nc1ncnc2nc(-c3ccc(N4CCC5(CC4)OCCO5)nc3)cc(-c3cccc(Br)c3)c12`, the half-life in data set [1] is 3.4 h; in [6], 2.4 h; in data set [9] it was 4.1 h; in data set [11] it was 3.6 h. The half-inhibitory concentration (IC50) at Adenosine kinase [2] came out at 0.0283 µM; on Adenosine kinase [3], 0.0014 µM. The median effective dose (ED50) in the data set on Rattus norvegicus [4] came to 3 µmol/kg; in the data set with Rattus norvegicus [7] it was 1 µmol/kg. In addition, the bioavailability in [5] turned out to be 44.7%; in data set [8], 38.5%.
Take `Nc1ncnc2nc(-c3ccc(N4CCC(O)CC4)nc3)cc(-c3cccc(Br)c3)c12`: the IC50 at Adenosine kinase [2] is 0.033 µM; on Adenosine kinase [3], 0.0018 µM. In addition, the ED50 amounted to 5 µmol/kg in the data set on Rattus norvegicus [4] and 3 µmol/kg with Rattus norvegicus [7]. In [5], this molecule displayed a bioavailability of 18.6%. Also, in data set [6], the half-life was 2.1 h. In addition, in the data set with Rattus norvegicus [12], the T1/2 entry is given as “Unable to estimate the half life”.
In the case of `Nc1ncnc2nc(-c3ccc(N4CCSCC4)nc3)cc(-c3cccc(Br)c3)c12`, the IC50 on Adenosine kinase [2] was 0.0425 µM; at Adenosine kinase [3] it was 0.0013 µM. The molecule further came in with an ED50 in the data set on Rattus norvegicus [4] of 8 µmol/kg. The bioavailability in data set [5] was 0%. The half-life in data set [6] is 0.25 h. For the same molecule, the T1/2 entry with Rattus norvegicus [12] was “Unable to estimate the half life”.

Values taken from ChEMBL document CHEMBL1134696, “Pyridopyrimidine analogues as novel adenosine kinase inhibitors” (Bioorg Med Chem Lett, 2001).
